Data on 24 molecules can be found in US9708334B2, “Substituted 2,4,5,6-tetrahydropyrrolo[3,4-c]pyrazole and 4,5,6,7-tetrahydro-2H-pyrazolo[4,3-c]pyridine compounds as GlyT1 inhibitors” (DART NEUROSCIENCE (CAYMAN) LTD., priority 2014, dated 2017).

A value given as a limit tells only on which side of the number the result lay.

For the assay, the target named is T1, GlyT1 (Homo sapiens, UniProt P48067).
T1 construct: expressed in transfected cells
T1 sequence (P48067 1-706): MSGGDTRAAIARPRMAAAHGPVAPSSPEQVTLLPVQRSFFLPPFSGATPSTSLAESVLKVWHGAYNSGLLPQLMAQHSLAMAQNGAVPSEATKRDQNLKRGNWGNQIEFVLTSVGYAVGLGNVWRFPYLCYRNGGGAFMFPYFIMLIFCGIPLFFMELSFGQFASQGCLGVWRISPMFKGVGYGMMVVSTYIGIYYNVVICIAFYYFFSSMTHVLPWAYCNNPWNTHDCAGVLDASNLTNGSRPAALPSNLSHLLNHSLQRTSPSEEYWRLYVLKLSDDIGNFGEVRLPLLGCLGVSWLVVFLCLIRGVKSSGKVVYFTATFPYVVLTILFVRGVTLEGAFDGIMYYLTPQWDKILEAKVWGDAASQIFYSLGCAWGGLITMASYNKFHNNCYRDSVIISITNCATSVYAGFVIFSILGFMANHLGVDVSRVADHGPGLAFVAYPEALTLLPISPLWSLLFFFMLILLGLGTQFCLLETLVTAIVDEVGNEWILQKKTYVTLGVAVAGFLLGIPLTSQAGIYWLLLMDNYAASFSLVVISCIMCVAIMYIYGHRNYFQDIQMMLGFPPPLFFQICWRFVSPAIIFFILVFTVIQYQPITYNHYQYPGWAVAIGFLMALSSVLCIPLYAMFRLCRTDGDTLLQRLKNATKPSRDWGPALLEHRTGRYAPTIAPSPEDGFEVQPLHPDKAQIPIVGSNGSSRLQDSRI
The assay can be described thus: Glycine Transporter 1 (GlyT1) uptake assay, scintillation proximity assay of [14C]-glycine uptake. The following applies: SPA, four parameter logistic fit, read-out: GlyT1 (pIC50) (converted). In kind it is cell-based. Put shortly: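 [14C]-glycine uptake read by scintillation proximity on a plate counter. IC50 from four-parameter logistic fit of dose-response data.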
On to `C[C@H](Oc1ccc(C#N)cc1C(=O)N1Cc2cn(CC(C)(C)F)nc2C1)C(F)(F)F` [Example 378, 3-[2-(2-Fluoro-2-methylpropyl)-2H 4H 5H 6H-pyrrolo[3,4-c]pyrazole-5-carbonyl]-4-{[(2S)-1 1 1-trifluoropropan-2-yl]oxy}benzonitrile], for which the IC50 is 100 to 1000 nM.

As to `C[C@H](Oc1ccc(C#N)cc1C(=O)N1Cc2cnn(CC(C)(C)F)c2C1)C(F)(F)F` [Example 379, 3-[1-(2-Fluoro-2-methylpropyl)-1H 4H 5H 6H-pyrrolo[3,4-c]pyrazole-5-carbonyl]-4-{[(2S)-1 1 1-trifluoropropan-2-yl]oxy}benzonitrile], the IC50 was above 10000 nM.

In the case of `Cc1cc(-n2cc3c(n2)CN(C(=O)c2cc(C#N)ccc2O[C@@H](C)C(F)(F)F)C3)cc(C)n1` [Example 380, 3-[2-(2 6-Dimethylpyridin-4-yl)-2H 4H 5H 6H-pyrrolo[3,4-c]pyrazole-5-carbonyl]-4-{[(2S)-1 1 1-trifluoropropan-2-yl]oxy}benzonitrile], the IC50 is below 100 nM.

Regarding `Cc1cc(-n2cc3c(n2)CN(C(=O)c2cc(C#N)ccc2OC(C)C)C3)cc(C)n1` [Example 381, 3-[2-(2 6-Dimethylpyridin-4-yl)-2H 4H 5H 6H-pyrrolo[3,4-c]pyrazole-5-carbonyl]-4-(propan-2-yloxy)benzonitrile], the IC50 is below 100 nM.

`C[C@H](Oc1ccc(C#N)cc1C(=O)N1Cc2cn(Cc3ccccc3)nc2C1)C(F)(F)F` [Example 382]: the IC50 is 100 to 1000 nM.

Regarding `C[C@H](Oc1ccc(C#N)cc1C(=O)N1Cc2cnn(Cc3ccccc3)c2C1)C(F)(F)F` [Example 383], the IC50 was 1000 to 10000 nM.

Turning to `CC(C)n1ncc2c1CN(C(=O)c1cc(C#N)ccc1O[C@@H](C)C(F)(F)F)C2` [Example 384, 3-[1-(Propan-2-yl)-1H 4H 5H 6H-pyrrolo[3,4-e]pyrazole-5-carbonyl]-4-{[(2S)-1 1 1-trifluoropropan-2-yl]oxy}benzonitrile], the IC50 is 1000 to 10000 nM.

For `CC(C)n1cc2c(n1)CN(C(=O)c1cc(C#N)ccc1O[C@@H](C)C(F)(F)F)C2` [Example 385, 3-[2-(Propan-2-yl)-2H 4H 5H 6H-pyrrolo[3,4-c]pyrazole-5-carbonyl]-4-{[(2 S)-1 1 1-trifluoropropan-2-yl]oxy}benzonitrile], the IC50 is 1000 to 10000 nM.

Take `CC(C)Cn1cc2c(n1)CN(C(=O)c1cc(C#N)ccc1O[C@@H](C)C(F)(F)F)C2` [Example 386, 3-[2-(2-Methylpropyl)-2H 4H 5H 6H-pyrrolo[3,4-c]pyrazole-5-carbonyl]-4-{[(2S)-1 1 1-trifluoropropan-2-yl]oxy}benzonitrile]: the IC50 was 100 to 1000 nM.

Consider `CC(C)Cn1ncc2c1CN(C(=O)c1cc(C#N)ccc1O[C@@H](C)C(F)(F)F)C2` [Example 387, 3-[1-(2-Methylpropyl)-1H 4H 5H 6H-pyrrolo[3,4-c]pyrazole-5-carbonyl]-4-{[(2S)-1 1 1-trifluoropropan-2-yl]oxy}benzonitrile], for which the IC50 was above 10000 nM.

Turning to `C[C@H](Oc1ccc(C#N)cc1C(=O)N1Cc2cnn(C3CCCC3)c2C1)C(F)(F)F` [Example 388, 3-{1-Cyclopentyl-1H 4H 5H 6H-pyrrolo[3,4-c]pyrazole-5-carbonyl}-4-{[(2 S)-1 1 1-trifluoropropan-2-yl]oxy}benzonitrile], the IC50 was 1000 to 10000 nM.

Regarding `C[C@H](Oc1ccc(C#N)cc1C(=O)N1Cc2cn(C3CCCC3)nc2C1)C(F)(F)F` [Example 389, 3-{2-Cyclopentyl-2H 4H 5H 6H-pyrrolo[3,4-c]pyrazole-5-carbonyl}-4-{[(2S)-1 1 1-trifluoropropan-2-yl]oxy}benzonitrile], the IC50 is 100 to 1000 nM.

As for `CC(C)Oc1ccc(C#N)cc1C(=O)N1Cc2cn(-c3ccc(F)cc3F)nc2C1` [Example 390, 3-[2-(2 4-Difluorophenyl)-2H 4H 5H 6H-pyrrolo[3,4-c]pyrazole-5-carbonyl]-4-(propan-2-yloxy)benzonitrile], the IC50 was 100 to 1000 nM.

As for `C[C@H](Oc1ccc(C#N)cc1C(=O)N1Cc2cn(-c3ccc(F)cc3F)nc2C1)C(F)(F)F` [Example 391, 3-[2-(2 4-Difluorophenyl)-2H 4H 5H 6H-pyrrolo[3,4-c]pyrazole-5-carbonyl]-4-{[(2S)-1 1 1-trifluoropropan-2-yl]oxy}benzonitrile], the IC50 was 100 to 1000 nM.

Turning to `COCCCn1ncc2c1CN(C(=O)c1cc(C#N)ccc1O[C@@H](C)C(F)(F)F)C2` [Example 392, 3-[1-(3-Methoxypropyl)-1H 4H 5H 6H-pyrrolo[3,4-c]pyrazole-5-carbonyl]-4-{[(2S)-1 1 1-trifluoropropan-2-yl]oxy}benzonitrile], the IC50 was above 10000 nM.

Take `COCCCn1cc2c(n1)CN(C(=O)c1cc(C#N)ccc1O[C@@H](C)C(F)(F)F)C2` [Example 393, 3-[2-(3-Methoxypropyl)-2H 4H 5H 6H-pyrrolo[3,4-c]pyrazole-5-carbonyl]-4-{[(2S)-1 1 1-trifluoropropan-2-yl]oxy}benzonitrile]: the IC50 is 100 to 1000 nM.

For `C[C@H](Oc1ccc(C#N)cc1C(=O)N1Cc2cnn(CC3CCOCC3)c2C1)C(F)(F)F` [Example 394, 3-[1-(Oxan-4-ylmethyl)-1H 4H 5H 6H-pyrrolo[3,4-c]pyrazole-5-carbonyl]-4-{[(2S)-1 1 1-trifluoropropan-2-yl]oxy}benzonitrile], the IC50 was 1000 to 10000 nM.

On to `Cc1cccc(-n2cc3c(n2)CN(C(=O)c2cc(C#N)ccc2O[C@@H](C)C(F)(F)F)C3)c1F` [Example 395], for which the IC50 is 100 to 1000 nM.

`C[C@H](Oc1ccc(C#N)cc1C(=O)N1Cc2cn(CC3CCOCC3)nc2C1)C(F)(F)F` [Example 396, 3-[2-(Oxan-4-ylmethyl)-2H 4H 5H 6H-pyrrolo[3,4-c]pyrazole-5-carbonyl]-4-{[(2S)-1 1 1-trifluoropropan-2-yl]oxy}benzonitrile]: the IC50 was 100 to 1000 nM.

As to `C[C@H](Oc1ccc(C#N)cc1C(=O)N1Cc2cn(-c3ccccc3F)nc2C1)C(F)(F)F` [Example 397, 3-[2-(2-Fluorophenyl)-2H 4H 5H 6H-pyrrolo[3,4-c]pyrazole-5-carbonyl]-4-{[(2S)-1 1 1-trifluoropropan-2-yl]oxy}benzonitrile], the IC50 is below 100 nM.

Consider `C[C@H](Oc1ccc(S(C)(=O)=O)cc1C(=O)N1Cc2cn(Cc3ccccc3)nc2C1)C(F)(F)F` [Example 398, 2-Benzyl-5-(5-methanesulfonyl-2-{[(2S)-1 1 1-trifluoropropan-2-yl]oxy}benzoyl)-2H 4H 5H 6H-pyrrolo[3,4-c]pyrazole], for which the IC50 is below 100 nM.

Consider `CC(C)Cn1cc2c(n1)CN(C(=O)c1cc(S(C)(=O)=O)ccc1O[C@@H](C)C(F)(F)F)C2` [Example 399, 5-(5-Methanesulfonyl-2-{[(2S)-1 1 1-trifluoropropan-2-yl]oxy}benzoyl)-2-(2-methylpropyl)-2H 4H 5H 6H-pyrrolo[3,4-c]pyrazole], for which the IC50 was below 100 nM.

In the case of `CC(C)Cn1cc2c(n1)CN(C(=O)c1cc(S(C)(=O)=O)ccc1OC(C)C)C2` [Example 400, 5-[5-Methanesulfonyl-2-(propan-2-yloxy)benzoyl]-2-(2-methylpropyl)-2H 4H 5H 6H-pyrrolo[3,4-c]pyrazole], the IC50 is below 100 nM.

As for `C[C@H](Oc1ccc(C#N)cc1C(=O)N1Cc2cn(CC3CCC3)nc2C1)C(F)(F)F` [Example 401, 3-[2-(Cyclobutylmethyl)-2H 4H 5H 6H-pyrrolo[3,4-c]pyrazole-5-carbonyl]-4-{[(2S)-1 1 1-trifluoropropan-2-yl]oxy}benzonitrile], the IC50 was 100 to 1000 nM.
